According to US12558348B2, “Bioactive phytochemicals” (Phytoquest Limited, priority 2019, dated 2026):

Test system: TNF-α
Test: Production of TNF-α by human monocytic cell line THP-1
Assay type: cell-based
Description: THP-1 cells are commercially available. Cultured cells can be placed in RPMI complete medium in microtitre plates (e.g. […] in 96 well plates) and after 24 hrs incubation, PMA (10 ng/mi) added to 96 well plate to differentiate THP-1 cells and to determine the effects on TNF-α and IL-10 production. The cells should be pre-treated with cucumber extract at, for example, 200 μg/ml to 25 μg/ml followed by 2 hr LPS (100 ng/ml) stimulation. Post incubation, the cell supernatant is aspirated from each of the wells into sterile micro centrifuge tubes and centrifuged at 1000 rpm for 2-3 mins to settle any cells if present. The cell supernatant is then used for evaluation of presence of TNF-α or IL-10 using ELISA. Sandwich ELISA plates coated with suitable antibody are widely available (e.g. R&D Systems, USA).
A second study indicated even greater activity for idoBR1 in human blood (significant at 0.01 μM) with pre-incubation. […] The data clearly indicate that idoBR1 can inhibit the production of TNF-α in human blood. Thus, it appears that it may be a potent anti-inflammatory agent. It also appears that it may be acting via a novel mechanism distinct from the steroid receptor pathways.

Row | Compound | inhibition at 50 µM (Homo sapiens, THP-1, 50 μM, identical pretreatment) [%] | effect on TNF-α production from THP-1 cells (alone with LPS)
1 | C[C@@H]1C[C@H]2[C@@H]3CCC4=CC(=O)C=C[C@]4(C)[C@@]3(F)[C@@H](O)C[C@]2(C)[C@@]1(O)C(=O)CO [dexamethasone, reference compound] | > 65 | 
2 | CC#C[C@]1(O)CC[C@H]2[C@@H]3CCC4=CC(=O)CCC4=C3[C@@H](c3ccc(N(C)C)cc3)C[C@@]21C [Mifepristone, reference compound] |  | greatly amplified
